Reference: the supplement of paper PMC10307832

Key:
Assay in all cases: relative viability (nuclei count vs DMSO), 5 days (fraction); higher = more cells survive
[1] = tested on: HCC-44
In short: (§1)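 Relative viability divides the nuclei count in treated wells by that in vehicle wells. Lung cancer cell lines were seeded in 1536-well plates, dosed by pin tool the next day, and fixed and stained after 5 days in one step with final 0.05% Triton X-100, 1% formaldehyde and 1 ug/ml Hoechst. Dosing was a single drug or a fixed anchor-drug dose plus five library-drug doses (not always all listed) in √10 steps, and values are medians of duplicate plates imaged at 4×.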

[2] = tested on: LCLC-103H
In short: as §1

[3] = tested on: HCC-15
In short: as §1

[4] = tested on: NCI-H358
In short: as §1

[5] = tested on: EKVX
In short: as §1

[6] = tested on: NCI-H2342
In short: as §1

[7] = tested on: NCI-H2085
In short: as §1

[8] = tested on: NCI-H1755
In short: as §1

[9] = tested on: NCI-H838
In short: as §1

[10] = tested on: HCC-366
In short: as §1

[11] = tested on: CAL-12T
In short: as §1

[12] = tested on: LOU-NH91
In short: as §1

[13] = tested on: NCI-H1975
In short: as §1

[14] = tested on: BEN
In short: as §1

[15] = tested on: NCI-H2023
In short: as §1

[16] = tested on: NCI-H1395
In short: as §1

[17] = tested on: NCI-H1734
In short: as §1

[18] = tested on: NCI-H441
In short: as §1

[19] = tested on: NCI-H1650
In short: as §1

[20] = tested on: NCI-H460
In short: as §1

[21] = tested on: NCI-H1437
In short: as §1

[22] = tested on: NCI-H1651
In short: as §1

[23] = tested on: NCI-H1355
In short: as §1

## C[C@@H]1CN(CC(=O)Nc2ccc3c(c2)Cc2cccc(-c4cc(=O)cc(N5CCOCC5)o4)c2S3)C[C@H](C)O1 + O=C(c1cc(Cc2n[nH]c(=O)c3ccccc23)ccc1F)N1CCN(C(=O)C2CC2)CC1 [Olaparib] (partner 8 µM)
[1]; first compound 0.04 µM
  relative viability: 0.94
[1]; first compound 0.1265 µM
  relative viability: 1.02
[1]; first compound 0.4 µM
  relative viability: 0.955
[1]; first compound 4 µM
  relative viability: 0.969
[2]; first compound 0.04 µM
  relative viability: 0.71
[2]; first compound 0.1265 µM
  relative viability: 0.739
[2]; first compound 0.4 µM
  relative viability: 0.771
[2]; first compound 4 µM
  relative viability: 0.722
[3]; first compound 0.04 µM
  relative viability: 0.722
[3]; first compound 0.1265 µM
  relative viability: 0.658
[3]; first compound 0.4 µM
  relative viability: 0.586
[3]; first compound 4 µM
  relative viability: 0.286
[4]; first compound 0.04 µM
  relative viability: 0.654
[4]; first compound 0.1265 µM
  relative viability: 0.66
[4]; first compound 0.4 µM
  relative viability: 0.625
[4]; first compound 4 µM
  relative viability: 0.178
[5]; first compound 0.04 µM
  relative viability: 0.862
[5]; first compound 0.1265 µM
  relative viability: 0.921
[5]; first compound 0.4 µM
  relative viability: 0.914
[5]; first compound 4 µM
  relative viability: 0.399
[6]; first compound 0.04 µM
  relative viability: 0.567
[6]; first compound 0.1265 µM
  relative viability: 0.52
[6]; first compound 0.4 µM
  relative viability: 0.52
[6]; first compound 4 µM
  relative viability: 0.419
[7]; first compound 0.04 µM
  relative viability: 0.755
[7]; first compound 0.1265 µM
  relative viability: 0.786
[7]; first compound 0.4 µM
  relative viability: 0.781
[7]; first compound 4 µM
  relative viability: 0.345
[8]; first compound 0.04 µM
  relative viability: 0.845
[8]; first compound 0.1265 µM
  relative viability: 0.918
[8]; first compound 0.4 µM
  relative viability: 0.833
[8]; first compound 4 µM
  relative viability: 0.958
[9]; first compound 0.04 µM
  relative viability: 0.746
[9]; first compound 0.1265 µM
  relative viability: 0.685
[9]; first compound 0.4 µM
  relative viability: 0.739
[9]; first compound 4 µM
  relative viability: 0.323
[10]; first compound 0.04 µM
  relative viability: 0.43
[10]; first compound 0.1265 µM
  relative viability: 0.489
[10]; first compound 0.4 µM
  relative viability: 0.44
[10]; first compound 4 µM
  relative viability: 0.055
[11]; first compound 0.04 µM
  relative viability: 0.81
[11]; first compound 0.1265 µM
  relative viability: 0.739
[11]; first compound 0.4 µM
  relative viability: 0.656
[11]; first compound 4 µM
  relative viability: 0.168
[12]; first compound 0.04 µM
  relative viability: 0.938
[12]; first compound 0.1265 µM
  relative viability: 0.964
[12]; first compound 0.4 µM
  relative viability: 0.907
[12]; first compound 4 µM
  relative viability: 0.721
[13]; first compound 0.04 µM
  relative viability: 0.78
[13]; first compound 0.1265 µM
  relative viability: 0.748
[13]; first compound 0.4 µM
  relative viability: 0.713
[13]; first compound 4 µM
  relative viability: 0.274
[14]; first compound 0.04 µM
  relative viability: 0.969
[14]; first compound 0.1265 µM
  relative viability: 1.13
[14]; first compound 0.4 µM
  relative viability: 1.11
[14]; first compound 4 µM
  relative viability: 0.69
[15]; first compound 0.04 µM
  relative viability: 0.441
[15]; first compound 0.1265 µM
  relative viability: 0.371
[15]; first compound 0.4 µM
  relative viability: 0.329
[15]; first compound 4 µM
  relative viability: 0.148
[16]; first compound 0.1265 µM
  relative viability: 0.482
[16]; first compound 0.4 µM
  relative viability: 0.506
[16]; first compound 4 µM
  relative viability: 0.458
[17]; first compound 0.04 µM
  relative viability: 0.73
[17]; first compound 0.1265 µM
  relative viability: 0.573
[17]; first compound 0.4 µM
  relative viability: 0.613
[17]; first compound 4 µM
  relative viability: 0.551
[18]; first compound 0.04 µM
  relative viability: 0.636
[18]; first compound 0.1265 µM
  relative viability: 0.551
[18]; first compound 0.4 µM
  relative viability: 0.507
[18]; first compound 4 µM
  relative viability: 0.141
[19]; first compound 0.04 µM
  relative viability: 0.731
[19]; first compound 0.1265 µM
  relative viability: 0.713
[19]; first compound 0.4 µM
  relative viability: 0.967
[19]; first compound 4 µM
  relative viability: 0.282
[20]; first compound 0.04 µM
  relative viability: 0.506
[20]; first compound 0.1265 µM
  relative viability: 0.444
[20]; first compound 0.4 µM
  relative viability: 0.502
[20]; first compound 4 µM
  relative viability: 0.112
[21]; first compound 0.04 µM
  relative viability: 0.613
[21]; first compound 0.1265 µM
  relative viability: 0.635
[21]; first compound 0.4 µM
  relative viability: 0.598
[21]; first compound 4 µM
  relative viability: 0.352
[22]; first compound 0.04 µM
  relative viability: 0.173
[22]; first compound 0.1265 µM
  relative viability: 0.167
[22]; first compound 0.4 µM
  relative viability: 0.178
[22]; first compound 4 µM
  relative viability: 0.139
[23]; first compound 0.04 µM
  relative viability: 0.783
[23]; first compound 0.1265 µM
  relative viability: 0.699
[23]; first compound 0.4 µM
  relative viability: 0.664
[23]; first compound 4 µM
  relative viability: 0.482
